Data as given in the Kinase Knowledgebase extract (Sharma et al. 2016).

Target: MAPK14 (human) (UniProt Q16539)
Experiment: Enzyme Assay

Chain of MAPK14 (human) (Q16539 whole entry, looked up): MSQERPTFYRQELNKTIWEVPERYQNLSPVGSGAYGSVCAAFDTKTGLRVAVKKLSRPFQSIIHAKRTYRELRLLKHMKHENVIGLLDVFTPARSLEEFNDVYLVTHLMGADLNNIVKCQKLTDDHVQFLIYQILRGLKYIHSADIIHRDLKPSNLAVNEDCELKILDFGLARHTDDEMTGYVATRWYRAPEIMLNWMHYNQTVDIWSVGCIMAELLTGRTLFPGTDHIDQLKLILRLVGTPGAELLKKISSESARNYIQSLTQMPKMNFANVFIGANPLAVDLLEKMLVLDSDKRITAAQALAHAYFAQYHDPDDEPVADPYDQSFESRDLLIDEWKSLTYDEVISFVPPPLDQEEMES

C[C@H]1CCCCN1c1nnc2ccc(O[C@@H]3CC[C@H](NC(=O)Nc4cc(C(C)(C)C)nn4-c4cccc(OCCN5C6CCCC5CC6)c4)c4ccccc43)cn12
IC50: < 10 nM

Cc1ccc(-n2nc(C(C)(C)C)cc2NC(=O)N[C@H]2CC[C@@H](Oc3ccc4nnc(C(C)(C)N(C)C)n4c3)c3ccccc32)cc1
IC50: < 10 nM

Cc1ccc(-n2nc(C(C)(C)C)cc2NC(=O)N[C@H]2CC[C@@H](Oc3ccc4nnc(C5CN(C)CCN5C)n4c3)c3ccccc32)cc1 (stereo partly drawn)
IC50: < 10 nM

C[C@H]1CCCCN1c1nnc2ccc(O[C@@H]3CC[C@H](NC(=O)Nc4cc(C(C)(C)C)nn4-c4ccc(CN5CCOCC5)cc4)c4ccccc43)cn12
IC50: < 10 nM

C[C@H]1CCCCN1c1nnc2ccc(O[C@@H]3CC[C@H](NC(=O)Nc4cc(C(C)(C)C)nn4-c4ccnc(N(C)CCN(C)C)n4)c4ccccc43)cn12
IC50: < 10 nM

CC(C)(C)c1cc(NC(=O)N[C@H]2CC[C@@H](Oc3ccc4nnc(N5CCCCC5)n4c3)c3ccccc32)n(-c2cccc(CN3CCCCC3)c2)n1
IC50: < 10 nM

Cc1ccc(-n2nc(C(C)(C)C)cc2NC(=O)N[C@H]2CC[C@@H](Oc3ccc4nnc([C@@H]5CCCN(C)C5)n4c3)c3ccccc32)cc1
IC50: < 10 nM

Cc1ccc(-n2nc(C(C)(C)C)cc2NC(=O)N[C@H]2CC[C@@H](Oc3ccc4nnc([C@@H]5C[C@@H](F)CN5C)n4c3)c3ccccc32)cc1
IC50: < 10 nM

C[C@H]1CCCCN1c1nnc2ccc(O[C@@H]3CC[C@H](NC(=O)Nc4cc(C(C)(C)C)nn4CCN(C)C)c4ccccc43)cn12
IC50: < 10 nM

Cc1ccc(-n2nc(C(C)(C)C)cc2NC(=O)N[C@H]2CC[C@@H](Oc3ccc(C#N)nc3)c3ccccc32)cc1
IC50: < 10 nM

CN1CCC[C@H]1c1nnc2ccc(O[C@H]3C[C@H](NC(=O)Nc4cc(C(C)(C)C)nn4-c4ccc(CO)cc4)c4ccccc43)cn12
IC50: < 10 nM

Cc1ccc(-n2nc(C(C)(C)C)cc2NC(=O)N[C@H]2CC[C@@H](Oc3ccc4nnc(N5CCC[C@H]5CO)n4c3)c3ccccc32)cc1
IC50: < 10 nM

CN1CCCC[C@H]1c1nnc2ccc(O[C@@H]3CC[C@H](NC(=O)Nc4cc(C(C)(C)C)nn4CCO)c4ccccc43)cn12
IC50: < 10 nM

Cc1ccc(-n2nc(C(C)(C)C)cc2NC(=O)N[C@H]2CC[C@@H](Oc3ccc4nnc(N(C)C)n4c3)c3ccccc32)cc1
IC50: < 10 nM

Cc1ccc(-n2nc(C(C)(C)C)cc2NC(=O)N[C@H]2CC[C@@H](Oc3ccc4nnc(N5CCC(CO)CC5)n4c3)c3ccccc32)cc1
IC50: < 10 nM

Cc1ccc(-n2nc(C(C)(C)C)cc2NC(=O)N[C@H]2CC[C@@H](Oc3ccc4nnc(N5CCC(C)(O)CC5)n4c3)c3ccccc32)cc1
IC50: < 10 nM

CN1CCC[C@H]1c1nnc2ccc(O[C@@H]3CC[C@H](NC(=O)Nc4cc(C(C)(C)C)nn4-c4cccc(CO)c4)c4ccccc43)cn12
IC50: < 10 nM

C[C@H]1COCCN1c1nnc2ccc(O[C@@H]3CC[C@H](NC(=O)Nc4cc(C(C)(C)C)nn4CCO)c4ccccc43)cn12
IC50: < 10 nM

CCN(C)Cc1ccc(-n2nc(C(C)(C)C)cc2NC(=O)N[C@H]2CC[C@@H](Oc3ccc4nnc(N5CCCC[C@@H]5C)n4c3)c3ccccc32)cc1
IC50: < 10 nM

Cc1ccc(-n2nc(C(C)(C)C)cc2NC(=O)N[C@H]2CC[C@@H](Oc3ccc4nnc(N5CCC(C(C)(C)O)CC5)n4c3)c3ccccc32)cc1
IC50: < 10 nM

CN(C)CCn1cnc(-n2nc(C(C)(C)C)cc2NC(=O)N[C@H]2CC[C@@H](Oc3ccc4nnc(N5CCCCC5)n4c3)c3ccccc32)c1
IC50: < 10 nM

CC(C)(C)c1cc(NC(=O)N[C@H]2CC[C@@H](Oc3ccc4nnc(N5CCCCC5)n4c3)c3ccccc32)n(-c2cccc(SCCO)c2)n1
IC50: < 10 nM

CN1CCC[C@H]1c1nnc2ccc(O[C@@H]3CC[C@H](NC(=O)Nc4cc(C(C)(C)C)nn4-c4cccc(SCCO)c4)c4ccccc43)cn12
IC50: < 10 nM

C[C@@H]1CCC[C@H](C)N1c1nnc2ccc(O[C@@H]3CC[C@H](NC(=O)Nc4cc(C(C)(C)C)nn4-c4cccc(CN5CCCC5)c4)c4ccccc43)cn12
IC50: < 10 nM

Cc1ccc(-n2nc(C(C)(C)C)cc2NC(=O)N[C@H]2CC[C@@H](Oc3ccc4nnc([C@]5(CO)CCCN5C)n4c3)c3ccccc32)cc1
IC50: < 10 nM

COC1CCN(CCOc2cccc(-n3nc(C(C)(C)C)cc3NC(=O)N[C@H]3CC[C@@H](Oc4ccc5nnc(N6CCCC[C@@H]6C)n5c4)c4ccccc43)c2)CC1
IC50: < 10 nM

Cc1ccc(-n2nc(C(C)(C)C)cc2NC(=O)N[C@H]2CC[C@@H](Oc3ccc4nnc(CCN5CCN(C)CC5)n4c3)c3ccccc32)cc1
IC50: < 10 nM

C[C@H]1COCCN1c1nnc2ccc(O[C@@H]3CC[C@H](NC(=O)Nc4cc(C(C)(C)C)nn4-c4cccc(OCCN(C)C)c4)c4ccccc43)cn12
IC50: < 10 nM

Cc1ccc(-n2nc(C(C)(C)C)cc2NC(=O)N[C@H]2CC[C@@H](Oc3ccc4nnc(C5CCNCC5)n4c3)c3ccccc32)cc1
IC50: < 10 nM

Cc1ccc(-n2nc(C(C)(C)C)cc2NC(=O)N[C@H]2CC[C@@H](Oc3ccc4nnc([C@H]5CCCN(C)C5)n4c3)c3ccccc32)cc1
IC50: < 10 nM

Cc1ccc(-n2nc(C(C)(C)C)cc2NC(=O)N[C@H]2CC[C@@H](Oc3ccc4nnc(N5CCCCCC5)n4c3)c3ccccc32)cc1
IC50: < 10 nM

C[C@H]1CCCCN1c1nnc2ccc(O[C@@H]3CC[C@H](NC(=O)Nc4cc(C(C)(C)C)nn4-c4cccc(CN5CCCC5)c4)c4ccccc43)cn12
IC50: < 10 nM

C[C@H]1CCCCN1c1nnc2ccc(O[C@@H]3CC[C@H](NC(=O)Nc4cc(C(C)(C)C)nn4-c4cccc(OCCN5CCC(F)CC5)c4)c4ccccc43)cn12
IC50: < 10 nM

Cc1ccc(-n2nc(C(C)(C)C)cc2NC(=O)N[C@H]2CC[C@@H](Oc3ccc4nnc(CC5CCN(C)CC5)n4c3)c3ccccc32)cc1
IC50: < 10 nM

Cc1ccc(-n2nc(C(C)(C)C)cc2NC(=O)N[C@H]2CC[C@@H](OCCN3CCOCC3)c3ccccc32)cc1
IC50: 100 to 500 nM

Cc1ccc(-n2nc(C(C)(C)C)cc2NC(=O)N[C@H]2CC[C@@H](Oc3ccc4nnc([C@]5(C)CCCN5C)n4c3)c3ccccc32)cc1
IC50: < 10 nM

Cc1ccc(-n2nc(C(C)(C)C)cc2NC(=O)N[C@H]2CC[C@@H](Oc3ccc4nnc(-c5ccc(CN6CCOCC6)nc5)n4c3)c3ccccc32)cc1
IC50: 10 to 100 nM

Cc1ccc(-n2nc(C(C)(C)C)cc2NC(=O)N[C@H]2CC[C@@H](Oc3ccc4nnc(NC(C)C)n4c3)c3ccccc32)cc1
IC50: < 10 nM

Cc1ccc(-n2nc(C(C)(C)C)cc2NC(=O)N[C@H]2CC[C@@H](Oc3ccc4nnc(N5CCCC[C@@H]5C)n4c3)c3ccccc32)cc1
IC50: < 10 nM

Cc1ccc(-n2nc(C(C)(C)C)cc2NC(=O)N[C@H]2CC[C@@H](Oc3ccc4nnc([C@@H]5CCCN5C)n4c3)c3ccccc32)cc1
IC50: < 10 nM

Cc1ccc(-n2nc(C(C)(C)C)cc2NC(=O)N[C@H]2CC[C@@H](Oc3ccc4nnc([C@@H]5CCN(C)C5)n4c3)c3ccccc32)cc1
IC50: < 10 nM

C[C@H]1CCCCN1c1nnc2ccc(O[C@@H]3CC[C@H](NC(=O)Nc4cc(C(C)(C)C)nn4-c4ccc(CN5CCN(C)CC5)cc4)c4ccccc43)cn12
IC50: < 10 nM

C[C@H]1CCCCN1c1nnc2ccc(O[C@@H]3CC[C@H](NC(=O)Nc4cc(C(C)(C)C)nn4-c4cccc(OCCN5CCCC5)c4)c4ccccc43)cn12
IC50: < 10 nM

C[C@H]1CCCCN1c1nnc2ccc(O[C@@H]3CC[C@H](NC(=O)Nc4cc(C(C)(C)C)nn4-c4cccc(OCCN5C6CCC5COC6)c4)c4ccccc43)cn12
IC50: < 10 nM

Cc1ccc(-n2nc(C(C)(C)C)cc2NC(=O)N[C@H]2CC[C@@H](Oc3ccc4cnn(CCO)c4c3)c3ccccc32)cc1
IC50: < 10 nM

COC1CCN(Cc2cccc(-n3nc(C(C)(C)C)cc3NC(=O)N[C@H]3CC[C@@H](Oc4ccc5nnc(N6CCCC[C@@H]6C)n5c4)c4ccccc43)c2)CC1
IC50: < 10 nM

CCN1CCC[C@H]1c1nnc2ccc(O[C@@H]3CC[C@H](NC(=O)Nc4cc(C(C)(C)C)nn4-c4ccc(C)cc4)c4ccccc43)cn12
IC50: < 10 nM

C[C@H]1CCCCN1c1nnc2ccc(O[C@@H]3CC[C@H](NC(=O)Nc4cc(C(C)(C)C)nn4CCO)c4ccccc43)cn12
IC50: < 10 nM

C[C@@H]1CCC[C@H](C)N1c1nnc2ccc(O[C@@H]3CC[C@H](NC(=O)Nc4cc(F)cc(N5CCOCC5)c4)c4ccccc43)cn12
IC50: < 10 nM

CN(C)CCOc1cccc(-n2nc(C(C)(C)C)cc2NC(=O)N[C@H]2CC[C@@H](Oc3ccc4nnc(N5CC6CCC(C6)C5)n4c3)c3ccccc32)c1
IC50: < 10 nM

Cc1ccc(-n2nc(C(C)(C)C)cc2NC(=O)N[C@H]2CC[C@@H](Oc3ccc4nnc(-c5cccc(CN6CCOCC6)c5)n4c3)c3ccccc32)cc1
IC50: < 10 nM

CC(C)(C)c1cc(NC(=O)N[C@H]2CC[C@@H](Oc3ccc4nnc(N5CCCCC5)n4c3)c3ccccc32)n(-c2cccc(CN3CCC(O)CC3)c2)n1
IC50: < 10 nM

CCN(C)CCOc1cccc(-n2nc(C(C)(C)C)cc2NC(=O)N[C@H]2CC[C@@H](Oc3ccc4nnc(N5CCCC[C@@H]5C)n4c3)c3ccccc32)c1
IC50: < 10 nM

Cn1cc(-n2nc(C(C)(C)C)cc2NC(=O)N[C@H]2CC[C@@H](Oc3ccc4nnc(N5CCCCC5)n4c3)c3ccccc32)cn1
IC50: < 10 nM

C[C@H]1CCCCN1c1nnc2ccc(O[C@@H]3CC[C@H](NC(=O)Nc4cc(C(C)(C)C)nn4-c4cccc(CCN5CCOCC5)c4)c4ccccc43)cn12
IC50: < 10 nM

CC(C)N(c1nnc2ccc(O[C@@H]3CC[C@H](NC(=O)Nc4cc(C(C)(C)C)nn4-c4cccc(OCCN(C)C)c4)c4ccccc43)cn12)C(C)C
IC50: < 10 nM

Cc1ccc(-n2nc(C(C)(C)C)cc2NC(=O)N[C@H]2CC[C@@H](Oc3ccc4nnc([C@@H]5CCCN5CCCO)n4c3)c3ccccc32)cc1
IC50: < 10 nM

C[C@H]1CCCCN1c1nnc2ccc(O[C@@H]3CC[C@H](NC(=O)Nc4cc(C(C)(C)C)nn4C)c4ccccc43)cn12
IC50: < 10 nM

CN1CCC[C@H]1c1nnc2ccc(O[C@@H]3CC[C@H](NC(=O)Nc4cc(C(C)(C)C)nn4-c4ccc(O)cc4)c4ccccc43)cn12
IC50: < 10 nM

C[C@@H]1CCCCN1c1nnc2ccc(O[C@@H]3CC[C@H](NC(=O)Nc4cc(C(C)(C)C)nn4-c4cccc(OCCN(C)C)c4)c4ccccc43)cn12
IC50: < 10 nM

CN1CCN(Cc2ccc(-n3nc(C(C)(C)C)cc3NC(=O)N[C@H]3CC[C@@H](Oc4ccc5nnc(N6CCCCC6)n5c4)c4ccccc43)cc2)CC1
IC50: < 10 nM

CC(C)(C)c1cc(NC(=O)N[C@H]2CC[C@@H](Oc3ccc4nnc(N5CCC(CO)CC5)n4c3)c3ccccc32)n(-c2ccc(CO)cc2)n1
IC50: < 10 nM

Cc1ccc(-n2nc(C(C)(C)C)cc2NC(=O)N[C@H]2CC[C@@H](Oc3ccc4nnc(N5CCC[C@@H](O)C5)n4c3)c3ccccc32)cc1
IC50: < 10 nM
